Reference: patent US4684650A, “Antihypertensive fluorophenylindanyl imidazolidinoneethylpiperazines” (priority 1984, dated 1987)
Where two headings read alike, the source gives them in different places.

Columns and labels:
[1] = tested on: spontaneous hypertensive rats (SHR); assay: Antihypertensive effect in spontaneous hypertensive rats (SHR); assay type: in vivo; details: for change in vivo at 5 mg/kg / ED10: Rattus norvegicus, ip; for change in vivo at 5 mg/kg: 1 h; for peripheral or central action: in words; for Antihypertensive eff. SHR, max eff. in % of 5 mg/kg ip, DAP: diastolic pressure (DAP); for Antihypertensive eff. SHR, max eff. in % of 5 mg/kg ip, DAP / Antihypertensive eff. SHR, max eff. in % of 5 mg/kg ip, SAP: max change within one hour; for Antihypertensive eff. SHR, max eff. in % of 5 mg/kg ip, SAP: systolic pressure (SAP)
Description: Antihypertensive effect in spontaneous hypertensive rats (SHR)
The femoral artery of male SHR is cannulated in anaestesia for blood pressure recordings. After a stabilization period of 11/2 h after discontinuation of the anaesthesia initial blood pressure curves are recorded and the systolic (SAP)/diastolic (DAP) pressure determined (-20, -10, 0, min. p.i.) Test substance is injected i.p. and the pressure curve recorded for one hour. The change in SAP/DAP is calculated in percent at mean initial values at different times (10, 20, 30, 40, 50 and 60 minutes after injection). At least two SHR are used per dose level. The maximum change is used for estimation of the drug effect.

[2] = tested on: 1-5-HTP-induced head shakes; assay: 1-5-HTP-induced head shakes; assay type: in vivo; details: rats, 1-5-HTP 75 mg/kg i.p. after citalopram; for ED50: Rattus norvegicus, sc, read-out: 1-5-HTP-antg. ED50; for 1-5-HTP-antg. ED50: s.c.
Description: The rats were pretreated subcutaneously with test compound or saline simultaneously with or 90 min before injection of citalopram (10 mg/kg s.c.).
Each group consisted of 4-12 rats.

[3] = tested on: methylphenidate induced stereotypies; assay: Methylphenidate Antagonism; assay type: in vivo, mice; details: for ED50: Mus musculus, ip, read-out: MePh antg. ED50, i.p., mice, 2 hours before methylphenidate 60 mg/kg s.c.; for MePh antg. ED50: i.p., mice, 2 hours before methylphenidate 60 mg/kg s.c.
Description: The experiments were made as described by Pedersen and Christensen (1972) Acta Pharmacol. et Toxicol. 31, 488-496.--Briefly, test compounds or saline were injected i.p. 2 hours before methylphenidate, 60 mg/kg s.c. 3 pairs of mice were used for each dose level. After methylphenidate injection the mice were placed in observation cages for one hour. The cages were placed on corrugated paper, the corrugation facing upwards.

5-HT pressor responses = assay: Antagonism to 5-HT pressor responses in pithed rats; assay type: in vivo; details: for change in vivo at 0.02 mg/kg / ED50: Rattus norvegicus, iv; for change in vivo at 0.02 mg/kg: read-out: Effects on pressor response of 5-HT, % eff. of 0.02 mg/kg, pithed rats, 0.02 mg/kg, jugular vein; for ED50: read-out: Effects on pressor response of 5-HT, ED50, pithed rats, jugular vein; for Effects on pressor response of 5-HT, % eff. of 0.02 mg/kg: pithed rats, jugular vein
Description: (§1) The rat is anaesthetized with ether, tracheotomized, artificial respired and pithed. The knitting-needle is introduced through the right orbita into the cranial cavity and passed through foramen magnum into the spinal canal as far as possible. The spinal cord is destroyed by turning the needle. After vagotomi both carotides are ligated and a catheter placed in the right one for pressure recording. The rat is adrenalectomized. […] The initial and post medication mean pressor effect is calculated, and the mean pressor effect is calculated as % of the initial value. Two to five preparations are employed for each dose level. The ED50 is determined.

[4] = tested on: phenylephrine pressor responses; assay: Antagonism to phenylephrine pressor responses in pithed rats; assay type: in vivo; details: for ED50: Rattus norvegicus, iv, read-out: Effects on pressor response of Phenylephrine, ED50; for Phenylephr. antg./5-HT antg. (ratio): pithed rats, ratio of phenylephrine ED50 to 5-HT ED50
Description: as §1

5-HT2 receptors = target: T1, 5-HT2 receptors (Rattus norvegicus, UniProt P14842); assay: 3H-spiroperidol binding to 5-HT2 receptors; details: rat whole cortex, 0.5 nM 3H-spiroperidol, 0.3 μM sulpiride; read-out: 3H-SPI binding 5-HT2 IC50
T1 construct: Rat whole cortex was homogenized by an Ultra Turrax homogenizer; from tissue; host or cells: rat whole cerebral cortex, crude washed membranes
Description: ^3 H-spiroperidol binding to 5-HT2 receptors.
Rat whole cortex was homogenized by an Ultra Turrax homogenizer in 100 vol. of 50 mM Tris buffer pH 7.7. The homogenate was centrifuged at 20,000 g for 10 minutes at 4° C. The pellet was rehomogenized in another volume of buffer and centrifuged as mentioned above. The final pellet was rehomogenized in 50 mM Tris buffer pH 7.7 containing 120 mM NaCl, 5 mM KCl, 2 mM CaCl2 and 1 mM MgCl2 (ion mix) in a volume corresponding to 12.5 mg original tissue per ml.
Test drugs were dissolved in water; ^3 H-spiroperidol (NEN, 28-30 Ci/mmol) was diluted in 3 μM sulpiride, and 800 μl membrane suspension were added. Final concentration of ligand and sulpiride were 0.5 nM and 0.3 μM, respectively. The samples were incubated at 37° C. for 10 min. The samples were then filtered under vacuum through Whatman GF/B glass-fiber filters. The tubes were then rinsed with 5 ml incubation buffer, which was poured on the filters. The filters were finally washed twice with 5 ml buffer and placed in counting vials. After addition of 5 ml scintillation fluid (Lumagel) radioactivity was estimated by liquid scintillation counting. Non-specific binding was obtained by adding Mianserin (1 μM) to separate samples. Each drug was tested at least twice at 5 concentrations in triplicate. IC50-values were determined from log concentration-response curves.--The presence of sulpiride excluded binding to dopamine D-2 receptors.

[5] = read-out: Antihypertensive eff. SHR, max eff. in % of 5 mg/kg ip, DAP, 5 mg/kg ip, diastolic pressure (DAP), max change within one hour
[6] = read-out: Antihypertensive eff. SHR, max eff. in % of 5 mg/kg ip, SAP, 5 mg/kg ip, systolic pressure (SAP), max change within one hour
[7] = read-out: Antihypertensive eff. SHR, ED10 DAP
[8] = read-out: Antihypertensive eff. SHR, ED10 SAP

T1 sequence (P14842 whole entry): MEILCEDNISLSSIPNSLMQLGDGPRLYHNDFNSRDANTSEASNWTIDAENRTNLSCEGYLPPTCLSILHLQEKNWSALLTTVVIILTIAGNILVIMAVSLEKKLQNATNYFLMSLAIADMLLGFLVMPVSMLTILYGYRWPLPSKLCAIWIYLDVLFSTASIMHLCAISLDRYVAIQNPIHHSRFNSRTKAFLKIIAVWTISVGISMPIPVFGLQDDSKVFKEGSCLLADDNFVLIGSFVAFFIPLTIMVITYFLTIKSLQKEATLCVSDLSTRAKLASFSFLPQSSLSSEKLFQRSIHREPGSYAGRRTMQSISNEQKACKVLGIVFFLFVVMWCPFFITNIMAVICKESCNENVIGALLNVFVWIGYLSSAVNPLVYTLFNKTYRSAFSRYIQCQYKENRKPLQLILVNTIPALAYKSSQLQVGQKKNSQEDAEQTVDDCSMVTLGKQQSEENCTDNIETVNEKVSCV

Structure (SMILES) | change in vivo at 5 mg/kg [1, 5] [%] | change in vivo at 5 mg/kg [1, 6] [%] | ED10 [1, 7] [µmol/kg] | ED10 [1, 8] [µmol/kg] | ED50 [2] [µmol/kg] | ED50 [3] [µmol/kg] | change in vivo at 0.02 mg/kg (5-HT pressor responses) [%] | ED50 (5-HT pressor responses) [µmol/kg] | ED50 [4] [µmol/kg] | Phenylephr. antg./5-HT antg. (ratio) [4] | IC50 (5-HT2 receptors) [nM] | peripheral or central action [1] | activity against methylphenidate induced stereotypies ([3]; in words) | Antihypertensive eff. SHR, max eff. in % of 5 mg/kg ip, DAP ([1]; 5 mg/kg ip) [%] | Antihypertensive eff. SHR, max eff. in % of 5 mg/kg ip, SAP ([1]; 5 mg/kg ip) [%] | 1-5-HTP-antg. ED50 [2] [µmol/kg] | Effects on pressor response of 5-HT, % eff. of 0.02 mg/kg (5-HT pressor responses) [%] | Antihypertensive eff. SHR, max eff. in % of 5 mg/kg ip, SAP/DAP (inactive) ([1]; 5 mg/kg ip, SAP/DAP) | MePh antg. ED50 [3] [µmol/kg]
Cc1ccc2c(c1)[C@H](N1CCN(CCN3CCNC3=O)CC1)C[C@H]2c1ccc(F)cc1 (relative stereo) [compound 4, Trans-1-[3-(4-fluorophenyl)-6-methylindan-1-yl]-4-[2-(2-imidazolidinon-1-yl)ethyl]piperazine] | -32 | -27 | 2.4 | 3.3 | 0.13 | 27 | -73 | 0.017 | 2.02 | 119 | 23 |  |  |  |  |  |  |  | 
OCCN1CCN([C@@H]2C[C@@H](c3ccc(F)cc3)c3ccc(C(F)(F)F)cc32)CC1 (racemic) [Tefludazine, (±)trans-4-[3-(4-fluorophenyl)-6-(trifluoromethyl)-indan-1-yl]-1-piperazineethanol, reference compound] | -24 | -18 |  |  | 0.039 | 0.06 | -78 | 0.015 | 1.7 | 115 | 8.6 | marked central effects | high activity |  |  |  |  |  | 
Cc1ccc2c(c1)[C@H](N1CCN(CCN3CCOC3=O)CC1)C[C@H]2c1ccc(F)cc1 (relative stereo) [compound 9] | -41 | -32 | 3.5 | 4.5 | 0.45 | 29 | -73 | 0.02 | 1.51 | 76 | 21 |  |  |  |  |  |  |  | 
Fc1ccc([C@@H]2C[C@@H](N3CCN(CCN4CCNC4=S)CC3)c3cc(F)ccc32)cc1 (relative stereo) [compound 24, Trans-1-[3-(4-fluorophenyl)-6-fluoroindan-1-yl]-4-[2-(2-imidazolidinthion-1-yl)ethyl]piperazine] | -20 | -10 |  |  | 0.13 | 25 | -88 | 0.01 | 3.7 | 370 | 5.2 |  |  |  |  |  |  |  | 
CN1CCN(CCN2CCN([C@@H]3C[C@@H](c4ccc(F)cc4)c4ccc(F)cc43)CC2)C1=O (relative stereo) [compound 3] | -13 | -11 |  |  | 0.08 | > 78 | -87 | 0.01 | 14 | 1400 | 3.4 |  |  |  |  |  |  |  | 
CSc1ccc2c(c1)[C@H](N1CCN(CCN3CCOC3=O)CC1)C[C@H]2c1ccc(F)cc1 (relative stereo) [compound 10, Trans-1-[3-(4-fluorophenyl)-6-methylthioindan-1-yl]-4-[2-(2-oxazolidinon-3-yl)ethyl]piperazine] | -22 | -14 |  |  | 2.4 | > 76 | -57 | 0.034 | 9.4 | 276 | 6.6 |  |  |  |  |  |  |  | 
O=C1NCCN1CCN1CCN([C@@H]2C[C@@H](c3ccc(F)cc3)c3ccccc32)CC1 (single isomer, unassigned) [+1, (+)trans-1-[3-(4-fluorophenyl]indan-1-yl]-4-[2-(2-imidazolidinon-1-yl)ethyl]piperazine] |  |  | 1.2 | 1.7 |  | > 97 |  | 0.009 | 3.21 | 357 | 6 | mainly possess periferal action |  | -47 | -33 | 1.5 | -81 |  | 
O=C1NCCN1CCN1CCN([C@@H]2C[C@@H](c3ccc(F)cc3)c3ccccc32)CC1 (relative stereo) [compound 1] | -43 | -33 | 4.2 | 5.9 | 1.3 | > 98 | -68 | 0.024 | 3.13 |  | 25 |  |  |  |  |  |  |  | 
O=C1NCCN1CCCN1CCN([C@@H]2C[C@@H](c3ccc(F)cc3)c3ccc(F)cc32)CC1 (relative stereo) [compound 14] | -19 | -12 |  |  | 2 | 56 | -68 | 0.031 | 2.68 | 86 | 6.3 | mainly possess periferal action |  |  |  |  |  |  | 
Fc1ccc([C@@H]2C[C@@H](N3CCN(CCN4CCNC4=S)CC3)c3cc(F)ccc32)cc1 (single isomer, unassigned) [+24] | -40 | -32 |  |  | 0.03 | 17 | -88 |  |  |  | 2.5 |  |  |  |  |  |  |  | 
CN1CCN(CCN2CCN([C@@H]3C[C@@H](c4ccc(F)cc4)c4ccc(F)cc43)CC2)C1=O (single isomer, unassigned) [-3] |  |  |  |  |  |  |  |  |  |  | 410 |  |  |  |  | 45 | -6 | I | > 91
O=c1[nH]c2ccccc2n1CCN1CCN([C@@H]2C[C@@H](c3ccc(F)cc3)c3ccc(F)cc32)CC1 (relative stereo) [compound 16] | -11 | -15 |  |  | 0.28 | > 72 | -52 |  |  |  | 9.7 |  |  |  |  |  |  |  | 
O=C1NCCN1CCN1CCN([C@@H]2C[C@@H](c3ccc(F)cc3)c3ccccc32)CC1 (single isomer, unassigned) [-1] |  |  |  |  |  |  |  |  |  |  | 130 |  |  | -11 | -3 | 8.9 | -11 |  | > 97
CCN1CCN(CCN2CCN([C@@H]3C[C@@H](c4ccc(F)cc4)c4ccc(F)cc43)CC2)C1=O (relative stereo) [compound 12] | 4 | 4 |  |  | 0.092 | > 75 | -94 |  |  |  | 4.9 | marked central effects |  |  |  |  |  |  | 
